IC50 data for 45 compounds are collected here from patent US20110009403A1, “2-MORPHOLINYLPURINES AS INHIBITORS OF PI3K” (S*BIO Pte Ltd., priority 2007, published 2011).

Test [1] concerns the target mTOR (Homo sapiens, UniProt P42345). Kind of test: mTOR assay (phosphorylation of 4eBP1, [γ33P]-ATP filter plate). The test is classed as biochemical. The following applies: 10 μM ATP, 1 hour at room temperature. The procedure: Truncated mTOR kinase and His-tagged 4eBP1 were produced in-house. [γ^33P]-ATP was purchased from Amersham (GE Healthcare). All chemicals, unless otherwise stated, were from Sigma-Aldrich.
Phosphorylation assays were initially performed in a final volume of 20 μL in 384-well polypropylene plate (Greiner). Compounds were typically tested over the range from 100 μM to 0.006 μM, in 8 step dilutions, in duplicate. 10 μL/well of 2× Enzyme-Substrate solution (1.5 μg/mL mTOR, 40 μg/mL 4eBP1 in 1× assay buffer: 10 mM Hepes pH 7.5, 50 mM NaCl and 10 mM MnCl2) were first added to the sample plate containing 1 μL/well of test compound in neat DMSO. The reaction was initiated by adding 10 μL/well of 20 μM ATP solution (final assay concentration 10 μM ATP and 0.4 μCi/well of [γ^33P]-ATP). After 1 hour incubation at room temperature, the reaction was terminated with 40 μL/well of 20 mM EDTA/1 mM ATP solution.
50 μL/well of the stopped reaction mix was then transferred to 384-well MultiScreenHTS-PH filter plate (Millipore) pre-added with 50 μL/well of 1% phosphoric acid. The plate was washed 4 times with 120 μL/well of 0.5% phosphoric acid via vacuum filtration. Finally, 10 μL/well of Optiphase™ SuperMix liquid scintillation cocktail (Perkin Elmer) was added. After minimum 1 hour of incubation, counting was performed in a Wallac MicroBeta TriLux scintillation counter using coincidence counting mode with crosstalk correction.

The target of test [2] is T1, PI3K p110α/p85 (Homo sapiens, UniProt P42336).
T1 construct: made in house
T1 sequence (P42336 whole entry): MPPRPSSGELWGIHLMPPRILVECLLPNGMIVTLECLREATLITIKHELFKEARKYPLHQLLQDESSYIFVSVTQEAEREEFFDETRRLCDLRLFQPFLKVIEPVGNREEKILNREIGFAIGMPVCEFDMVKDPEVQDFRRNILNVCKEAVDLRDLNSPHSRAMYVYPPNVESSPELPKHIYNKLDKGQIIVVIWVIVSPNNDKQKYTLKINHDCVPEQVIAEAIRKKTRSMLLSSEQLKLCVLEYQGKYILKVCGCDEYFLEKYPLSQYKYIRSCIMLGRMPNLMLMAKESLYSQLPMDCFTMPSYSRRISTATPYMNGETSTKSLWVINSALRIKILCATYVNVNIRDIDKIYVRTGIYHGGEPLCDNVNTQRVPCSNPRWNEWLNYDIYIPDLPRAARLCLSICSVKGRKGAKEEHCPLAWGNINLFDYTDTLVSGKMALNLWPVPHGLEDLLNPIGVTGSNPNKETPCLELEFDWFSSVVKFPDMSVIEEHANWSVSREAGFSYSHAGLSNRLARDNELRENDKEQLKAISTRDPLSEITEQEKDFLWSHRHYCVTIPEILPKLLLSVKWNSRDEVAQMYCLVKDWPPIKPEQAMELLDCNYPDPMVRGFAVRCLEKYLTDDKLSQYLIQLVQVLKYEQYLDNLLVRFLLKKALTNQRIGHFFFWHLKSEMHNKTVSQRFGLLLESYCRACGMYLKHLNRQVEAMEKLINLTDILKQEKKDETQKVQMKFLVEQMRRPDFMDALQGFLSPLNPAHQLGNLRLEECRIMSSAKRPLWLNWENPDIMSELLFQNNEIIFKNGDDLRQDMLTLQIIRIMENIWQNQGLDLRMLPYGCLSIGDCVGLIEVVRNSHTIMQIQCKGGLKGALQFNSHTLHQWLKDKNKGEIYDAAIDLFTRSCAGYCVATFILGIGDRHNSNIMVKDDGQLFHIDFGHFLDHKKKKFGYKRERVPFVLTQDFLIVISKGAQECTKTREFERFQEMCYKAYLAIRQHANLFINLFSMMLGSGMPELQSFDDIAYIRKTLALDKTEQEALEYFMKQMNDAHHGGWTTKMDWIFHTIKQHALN
T1 sequence (P27986 whole entry partner): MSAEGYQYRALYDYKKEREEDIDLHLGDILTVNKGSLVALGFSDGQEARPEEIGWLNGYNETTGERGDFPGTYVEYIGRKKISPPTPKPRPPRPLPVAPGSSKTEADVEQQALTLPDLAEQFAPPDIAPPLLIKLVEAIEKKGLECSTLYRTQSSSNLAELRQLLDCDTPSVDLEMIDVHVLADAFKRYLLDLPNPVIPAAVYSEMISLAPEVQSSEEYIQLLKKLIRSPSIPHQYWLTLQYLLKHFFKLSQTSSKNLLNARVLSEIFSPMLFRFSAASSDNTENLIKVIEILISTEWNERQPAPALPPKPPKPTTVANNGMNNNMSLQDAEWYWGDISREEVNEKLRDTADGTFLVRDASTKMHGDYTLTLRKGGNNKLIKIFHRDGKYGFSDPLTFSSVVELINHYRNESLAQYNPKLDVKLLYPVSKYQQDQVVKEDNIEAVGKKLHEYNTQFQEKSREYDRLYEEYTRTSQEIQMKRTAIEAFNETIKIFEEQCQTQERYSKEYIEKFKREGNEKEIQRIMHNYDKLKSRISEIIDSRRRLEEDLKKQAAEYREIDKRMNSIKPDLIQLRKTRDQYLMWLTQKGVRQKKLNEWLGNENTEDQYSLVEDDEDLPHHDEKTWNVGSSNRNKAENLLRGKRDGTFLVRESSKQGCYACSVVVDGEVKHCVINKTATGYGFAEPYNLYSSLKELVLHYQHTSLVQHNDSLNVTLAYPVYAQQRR
In words: PI3K assay ([γ33P]ATP, PtdIns/PtdSer coated plates). It is filed as biochemical. The settings on record: 2 μM ATP, 1 hour at RT; read-out: IC50 (PI3Kα). The protocol: Recombinant PI3K p110α/p85 was prepared in-house. Phosphatidylinositol (PtdIns), phosphotidylserine (PtdSer) and all other unspecified chemicals were purchased from Sigma-Aldrich. [γ^33P]ATP and Optiphase scintillant were obtained from Perkin Elmer.
Assays were performed in a final assay volume of 25 μL in 384-well Maxisorp plates (Nunc). Compounds were tested at 8 concentrations in 3-fold serial dilution, generally starting from 10 μM. Maxisorp plates were coated with 20 μL/well of a 1:1 mixture of PtdIns and PtdSer [0.1 mg/mL each dissolved in chloroform:ethanol (3:7)] and left overnight in a fume hood at room temperature (RT) to dry.
The enzyme reaction was created by pipetting 5 μL/well of compound (in 2.5% DMSO), 10 μL/well of enzyme (0.5 μg/mL p110α+1 μg/mL p85), and 10 μL/well of 5 μM ATP with 5 μCi/mL [γ^33P]ATP in assay buffer (final concentrations: 0.2 μg/mL p110α, 2 μM ATP, […] [γ^33P]ATP in 1× assay buffer: 100 mM Tris-HCl pH 7.0, 200 mM NaCl, 8 mM MgCl2). The reaction was incubated for 1 hour at RT and terminated with 30 μL/well of 50 mM EDTA solution. The plate was then washed twice with TBS, dried, and added with 30 μL/well of scintillant before it was counted in a MicroBeta Trilux.

mTOR, sequence (P42345 1382-2549 limits assumed): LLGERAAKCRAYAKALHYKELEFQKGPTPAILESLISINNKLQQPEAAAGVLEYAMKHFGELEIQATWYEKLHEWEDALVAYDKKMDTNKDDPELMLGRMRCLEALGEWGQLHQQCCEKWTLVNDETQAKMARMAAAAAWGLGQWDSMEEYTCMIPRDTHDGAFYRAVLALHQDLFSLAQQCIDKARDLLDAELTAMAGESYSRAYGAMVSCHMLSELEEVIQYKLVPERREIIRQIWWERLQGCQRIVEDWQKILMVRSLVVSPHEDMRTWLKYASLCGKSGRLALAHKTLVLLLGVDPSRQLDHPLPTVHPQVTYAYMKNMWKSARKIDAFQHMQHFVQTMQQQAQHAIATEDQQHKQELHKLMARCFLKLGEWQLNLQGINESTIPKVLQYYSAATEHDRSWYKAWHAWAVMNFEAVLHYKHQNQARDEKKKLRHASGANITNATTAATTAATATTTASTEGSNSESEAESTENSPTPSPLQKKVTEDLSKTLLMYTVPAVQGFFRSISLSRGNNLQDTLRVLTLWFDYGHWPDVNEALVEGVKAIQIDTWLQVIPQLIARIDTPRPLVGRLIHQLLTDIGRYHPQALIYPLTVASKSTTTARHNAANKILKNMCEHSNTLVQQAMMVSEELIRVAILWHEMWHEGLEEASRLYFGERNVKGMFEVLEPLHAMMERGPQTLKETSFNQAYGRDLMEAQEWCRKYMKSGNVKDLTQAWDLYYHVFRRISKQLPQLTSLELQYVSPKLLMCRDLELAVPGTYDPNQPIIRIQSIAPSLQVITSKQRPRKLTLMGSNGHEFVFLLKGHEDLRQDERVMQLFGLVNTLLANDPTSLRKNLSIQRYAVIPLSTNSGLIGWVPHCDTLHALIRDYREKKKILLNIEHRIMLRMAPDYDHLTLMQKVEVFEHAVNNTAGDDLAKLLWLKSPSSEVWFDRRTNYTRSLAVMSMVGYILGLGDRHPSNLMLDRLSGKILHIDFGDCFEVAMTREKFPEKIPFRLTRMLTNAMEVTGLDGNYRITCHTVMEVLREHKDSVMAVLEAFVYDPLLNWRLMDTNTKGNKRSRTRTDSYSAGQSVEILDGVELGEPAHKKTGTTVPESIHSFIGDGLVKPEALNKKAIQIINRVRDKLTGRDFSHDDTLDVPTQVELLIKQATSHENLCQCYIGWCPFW

`OCc1cccc(-c2nc(N3CCOCC3)nc3c2ncn3Cc2ccccc2)c1` [Compound 1]: the IC50 – broadly, the concentration needed to halve the response being measured – was 1 to 5 µM in test [1] and less than 1 µM in test [2]. The matching figures for `Oc1cc(F)cc(-c2nc(N3CCOCC3)nc3c2ncn3Cc2ccccc2)c1` [Compound 3]: less than 1 µM and less than 1 µM. As to `CC(=O)Nc1cccc(-c2nc(N3CCOCC3)nc3c2ncn3Cc2ccccc2)c1` [Compound 4], the half-maximal inhibitory concentration (IC50) in test [1] and in test [2] was more than 5 µM each time. On to `Oc1ccc(-c2nc(N3CCOCC3)nc3c2ncn3Cc2ccccc2)cc1` [Compound 5], for which the IC50 in test [1] is 1 to 5 µM; in test [2], more than 5 µM. Take `c1ccc(Cn2cnc3c(-c4ccc5cc[nH]c5c4)nc(N4CCOCC4)nc32)cc1` [Compound 6]: the IC50 in test [1] and in test [2] was more than 5 µM in each case. Consider `Oc1cccc(-c2nc(N3CCOCC3)nc3c2ncn3Cc2c(F)cccc2F)c1` [Compound 7], for which the IC50 in test [1] and in test [2] was less than 1 µM throughout.

With `N#Cc1cccc(Cn2cnc3c(-c4cccc(O)c4)nc(N4CCOCC4)nc32)c1` [Compound 9], the IC50 in test [1] and in test [2] was less than 1 µM each time. Turning to `COCCn1cnc2c(-c3ccc4cc[nH]c4c3)nc(N3CCOCC3)nc21` [Compound 10, 6-(1H-Indol-6-yl)-9-(2-methoxy-ethyl)-2-morpholin-4-yl-9H-purine], the figures for the IC50 in test [1] and in test [2] were 1 to 5 µM and more than 5 µM, respectively. As for `COCCn1cnc2c(-c3cccc(O)c3)nc(N3CCOCC3)nc21` [Compound 11, 3-[9-(2-Methoxy-ethyl)-2-morpholin-4-yl-9H-purin-6-yl]-phenol], the IC50 in test [1] and in test [2] was less than 1 µM throughout. Consider `Oc1cccc(-c2nc(N3CCOCC3)nc3c2ncn3Cc2cccc(OC(F)(F)F)c2)c1` [Compound 12], for which the IC50 was 1 to 5 µM in test [1] and more than 5 µM in test [2]. The matching figures for `COC(=O)c1ccc(Cn2cnc3c(-c4cccc(O)c4)nc(N4CCOCC4)nc32)cc1` [Compound 13]: 1 to 5 µM and less than 1 µM. The matching figures for `COc1cc(Cn2cnc3c(-c4cccc(O)c4)nc(N4CCOCC4)nc32)cc(OC)c1` [Compound 14]: less than 1 µM and less than 1 µM. The matching figures for `Oc1cccc(-c2nc(N3CCOCC3)nc3c2ncn3Cc2cccc(F)c2)c1` [Compound 15]: less than 1 µM and less than 1 µM. For `COc1cccc(Cn2cnc3c(-c4cccc(O)c4)nc(N4CCOCC4)nc32)c1` [Compound 17], the IC50 in test [1] and in test [2] was less than 1 µM in each case.

In the case of `COc1cccc(Cn2cnc3c(-c4ccc5cc[nH]c5c4)nc(N4CCOCC4)nc32)c1` [Compound 18], the figures for the IC50 in test [1] and in test [2] were 1 to 5 µM and more than 5 µM, respectively. The matching figures for `O=[N+]([O-])c1ccc(Cn2cnc3c(-c4cccc(O)c4)nc(N4CCOCC4)nc32)cc1` [Compound 19, 3-[2-Morpholin-4-yl-9-(4-nitro-benzyl)-9H-purin-6-yl]-phenol]: less than 1 µM and less than 1 µM. The matching figures for `Nc1ccc(Cn2cnc3c(-c4cccc(O)c4)nc(N4CCOCC4)nc32)cc1` [Compound 20, 3-[9-(4-Amino-benzyl)-2-morpholin-4-yl-9H-purin-6-yl]-phenol]: less than 1 µM and less than 1 µM. The matching figures for `c1cc2ccc(-c3nc(N4CCOCC4)nc4c3ncn4CC3CC3)cc2[nH]1` [Compound 21]: less than 1 µM and more than 5 µM. `C=CCCn1cnc2c(-c3ccc4cc[nH]c4c3)nc(N3CCOCC3)nc21` [Compound 23]: the IC50 in test [1] was 1 to 5 µM; in test [2], more than 5 µM. On to `CCOC(=O)CCn1cnc2c(-c3cccc(O)c3)nc(N3CCOCC3)nc21` [Compound 24], for which the IC50 in test [1] was less than 1 µM. The same measure, in the same setting: under `CCOC(=O)CCn1cnc2c(-c3ccc4cc[nH]c4c3)nc(N3CCOCC3)nc21` [Compound 25] stands 1 to 5 µM. Take `O=C(CCN1CCCCC1)Nc1ccc(Cn2cnc3c(-c4cccc(O)c4)nc(N4CCOCC4)nc32)cc1` [Compound 26, N-{4-[6-(3-Hydroxy-phenyl)-2-morpholin-4-yl-purin-9-ylmethyl]-phenyl}-3-piperidin-1-yl-propionamide]: the figures for the IC50 in test [1] and in test [2] were 1 to 5 µM and less than 1 µM, respectively. The matching figures for `c1ccc(Cn2cnc3c(-c4ccc5nc[nH]c5c4)nc(N4CCOCC4)nc32)cc1` [Compound 28]: 1 to 5 µM and 1 to 5 µM. The matching figures for `Nc1cccc(-c2nc(N3CCOCC3)nc3c2ncn3Cc2ccccc2)c1` [Compound 29]: 1 to 5 µM and more than 5 µM. For the compound `Oc1cccc(-c2nc(N3CCOCC3)nc3c2ncn3Cc2ccc(C(F)(F)F)cc2)c1` [Compound 30], the IC50 in test [1] and in test [2] was 1 to 5 µM each time.

For `O=[N+]([O-])c1cccc(Cn2cnc3c(-c4cccc(O)c4)nc(N4CCOCC4)nc32)c1` [Compound 31], the IC50 in test [1] and in test [2] was less than 1 µM each time.

For `CC(=O)Nc1ccc(Cn2cnc3c(-c4cccc(O)c4)nc(N4CCOCC4)nc32)cc1` [Compound 32], the concentration for half-maximal inhibition (IC50) is 1 to 5 µM in test [1] and less than 1 µM in test [2]. The matching figures for `CC(=O)Nc1ccc(Cn2cnc3c(-c4cccc(OC(C)=O)c4)nc(N4CCOCC4)nc32)cc1` [Compound 33]: more than 5 µM and less than 1 µM. Regarding `CCNc1ccc(Cn2cnc3c(-c4cccc(O)c4)nc(N4CCOCC4)nc32)cc1` [Compound 34], the figures for the IC50 in test [1] and in test [2] were 1 to 5 µM and less than 1 µM, respectively. The matching figures for `Oc1cccc(-c2nc(N3CCOCC3)nc3c2ncn3Cc2cc(F)cc(F)c2)c1` [Compound 37]: less than 1 µM and less than 1 µM. The matching figures for `Nc1ccc(-c2nc(N3CCOCC3)nc3c2ncn3Cc2ccccc2)cc1N` [Compound 38]: 1 to 5 µM and more than 5 µM.

As for `c1ccc(Cn2cnc3c(-c4ccc5nn[nH]c5c4)nc(N4CCOCC4)nc32)cc1` [Compound 39], the IC50 in test [1] and in test [2] was 1 to 5 µM in each case.

As to `O=c1[nH]c2ccc(-c3nc(N4CCOCC4)nc4c3ncn4Cc3ccccc3)cc2[nH]1` [Compound 40], the IC50 in test [1] and in test [2] was more than 5 µM each time. Turning to `Nc1cccc(Cn2cnc3c(-c4cccc(O)c4)nc(N4CCOCC4)nc32)c1` [Compound 41], the IC50 in test [1] and in test [2] was less than 1 µM in each case. Regarding `CS(=O)(=O)Nc1ccc(Cn2cnc3c(-c4cccc(O)c4)nc(N4CCOCC4)nc32)cc1` [Compound 42], the IC50 in test [1] is 1 to 5 µM; in test [2], less than 1 µM. With `CS(=O)(=O)Nc1cccc(-c2nc(N3CCOCC3)nc3c2ncn3Cc2ccccc2)c1` [Compound 43], the IC50 in test [1] and in test [2] was more than 5 µM in each case.

As for `Oc1cccc(-c2nc(N3CCOCC3)nc3c2ncn3CCOc2ccccc2)c1` [Compound 44], the IC50 in test [1] and in test [2] was less than 1 µM in each case. As for `Oc1cccc(-c2nc(N3CCOCC3)nc3c2ncn3C/C=C/c2ccccc2)c1` [Compound 45], in test [1], the IC50 was less than 1 µM. The same measure, in the same setting: under `Oc1cccc(-c2nc(N3CCOCC3)nc3c2ncn3Cc2ccc3ccccc3c2)c1` [Compound 46] stands less than 1 µM; under `Oc1cccc(-c2nc(N3CCOCC3)nc3[nH]cnc23)c1` [Compound 48], 1 to 5 µM.

In test [1], `CC(C)(C)OC(=O)N1CCC(n2cnc3c(-c4cccc(O)c4)nc(N4CCOCC4)nc32)CC1` [Compound 71] gave an IC50 of less than 1 µM. Still for that read-out and setting: the result for `CCOC(=O)Cn1cnc2c(-c3cccc(O)c3)nc(N3CCOCC3)nc21` [Compound 74, ethyl-2-(6-(3-hydroxyphenyl)-2-morpholino-9H-purin-9-yl)acetate] reads less than 1 µM; that for `Oc1cccc(-c2nc(N3CCOCC3)nc3c2ncn3C2CCNCC2)c1` [Compound 85], less than 1 µM. Take `CC(C)(C)OC(=O)N1CCC(n2cnc3c(-c4cccc(O)c4)nc(N4CCOCC4)nc32)CC1` [Compound 86]: the IC50 in test [2] was less than 1 µM. Consider `CC(C)C(C)n1cnc2c(-c3cccc(O)c3)nc(N3CCOCC3)nc21` (centres unmarked) [Compound 100], for which the IC50 in test [1] is less than 1 µM.
